Results on 3 compounds are retold here after US8288087B2, “Use of melanoma inhibitory activity (MIA) protein as an early indicator for therapeutic response in melanoma” (Novartis AG, priority 2006, dated 2012).

Entries after “also recorded” stand apart in the source; their conditions may differ.

Holding throughout (assay type): in vivo, mouse
For experiment [1], the system named is MEXF 1341 human melanoma tumor explant xenograft. Put plainly: MEXF 1341 human melanoma tumor explant xenograft study, tumor volume and plasma MIA ELISA. The conditions noted are these: for tumor growth inhibition, significance vs. vehicle: MEXF 1341 (text prints MEXF 276), P>0.08 v. vehicle; for tumor growth inhibition, significance vs. vehicle / Tumor Volume: day 20; for Tumor Volume: mean ± SE. As for the experimental part:
(§1) MIA ELISA Assay: Equal numbers of human melanoma and colorectal carcinoma cells (˜250,000 cells for each cell line) were seeded onto tissue culture plates and the culture medium for each cell line was collected 48 hr later. Levels of MIA in culture media or plasma were measured by a commercial single-step ELISA kit according to the manufacturer's protocol (Roche Diagnostics Corporation, Indianapolis, Ind.). MIA concentrations in test samples were calculated using a standard curve ranging from 3-37 ng/ml. When the MIA concentration exceeded the highest standard concentration, the samples were diluted 1:5 and assayed again to have the results fall within the linear range of the standard curve. Data were evaluated using the Student t-test (two-tailed distribution, two-sample unequal variance), using P≦0.05 as the level of significance.
(§2) An MEXF 276 human melanoma tumor explant xenograft study and an MEXF1341 human melanoma tumor explant xenograft study were carried out as follows. The MEXF 276 human melanoma tumor cells and the MEXF1341 human melanoma tumor explant cells were originally derived from surgical specimens isolated from different melanoma patients (obtained from Oncotest GmbH, Institute for Experimental Oncology, Frieburg, Germany) and propagated as xenografts in nude mice. After removal of tumors from donor mice, samples were cut into fragments (1-2 mm diameter) and placed in RPMI 1640 medium before subcutaneous implantation into recipient male NMRI nu/nu mice (6-8 weeks old). Dosing typically began when tumors reached an average size of 6-8 mm in diameter. Animals were maintained under clean-room conditions in sterile filter-top cages and received sterile rodent chow and water ad libitum.
(§3) In a third experiment, MEXF 1341 human melanoma tumor-bearing mice were randomized and dosed orally with CHIR-265 (100 or 10 mg/kg) or sorafenib (100 mg/kg) n=4/group. The first day of dosing was designated as Day 0. As such, the dosing schedule for CHIR-265 (10 mg/kg) was 10 mg/kg on Day 0, 2, 4, 6, 14, 16 and 20. For CHIR-265 (100 mg/kg) the dosing schedule was 100 mg/kg on Day 0, 2, 14, 16 and 20. Finally, the dosing schedule for sorafenib and PEG400 vehicle was 100 mg/kg every day on Day 0-20. […] Plasma samples were collected 4 hr after the last dose on Day 20 and stored at −80° C. prior to MIA analysis. MIA plasma levels were determined by an ELISA assay carried out as described in EXAMPLE 1.

The test system of experiment [2] is MEXF 276 human melanoma tumor explant xenograft. Briefly: MEXF 276 human melanoma tumor explant xenograft study, tumor volume and plasma MIA ELISA. As to conditions: for Tumor Volume: day 20, mean ± SE; for tumor growth inhibition: day 20. As for the experimental part: as §1, §2
as §3, with “second” for “third”, “276” for “1341”, “CHIR-265” for “CHIR-265 (10 mg/kg)”, “CHIR-265” for “CHIR-265 (100 mg/kg)”
Background: In xenograft studies the graft and the host belong to different species.

Experiment [3] has as its system A375M human melanoma xenograft. Put plainly: Kinetics of plasma MIA and tumor volume in A375M tumor-bearing mice (Example 3). As to the method: as §1
(§4) An A375 human melanoma xenograft study was carried out with female athymic nu/nu mice (8-12 weeks old) purchased from Charles River Laboratories (Wilmington, Mass.). Approximately 2.5×10^6 cells were implanted subcutaneously (s.c.) into the hind flank region of mice. Plasma samples were collected when tumors reached an average size of 250 mm^3 (n=10) and stored at −80° C. prior to MIA analysis. Dosing typically began when tumors reached an average size of 250 mm^3. Caliper measurements were performed twice weekly to estimate tumor volume using the formula: (a×b^2)×0.5, where “a” is the largest diameter and “b” is the length perpendicular to the diameter.
Methods: The kinetics of MIA concentrations in plasma following drug treatment were investigated as follows. A375M tumor-bearing mice were dosed orally either with CHIR-265 (100 mg/kg), CHIR-258 (60 mg/kg) or vehicle (n=10/group). Plasma samples were collected before dosing was initiated, and again on day 3, 8 and 13. Tumor volumes were measured at the same time points, using methods described in EXAMPLE 2.

In experiment [4] the test system is A375M human melanoma xenograft. Put plainly: A375M human melanoma xenograft study, tumor volume and plasma MIA ELISA (Example 2). As for the experimental part: as §1, §4
In a first experiment, A375M human melanoma tumor-bearing mice (n=5) were randomized and dosed orally with CHIR-265 at 100 mg/kg (n=5) or vehicle (n=5) once every other day. Tumor-bearing animals treated with PEG400 buffer alone were used as vehicle control. […] Plasma samples were collected 48 hours post the fourth dose (day 10) for MIA analysis by ELISA.

Experiment [5] relates to CHL-1 human melanoma xenograft. Put plainly: CHL-1 human melanoma xenograft study, tumor volume and plasma MIA ELISA (Example 4). As to the method: as §1
A CHL-1 human melanoma xenograft study was carried out with female athymic nu/nu mice (8-12 weeks old) purchased from Charles River Laboratories (Wilmington, Mass.). Approximately 5×10^6 tumor cells in Matrigel™ were implanted subcutaneously (s.c.) into the hind flank region of mice. Dosing began when tumors reached an average size of 200 mm^3. Caliper measurements were performed twice weekly to estimate tumor volume using the formula: (a×b^2)×0.5, where “a” is the largest diameter and “b” is the length perpendicular to the diameter. […]

Consider `Cn1c(Nc2ccc(C(F)(F)F)cc2)nc2cc(Oc3ccnc(-c4ncc(C(F)(F)F)[nH]4)c3)ccc21` [CHIR-265, {1-Methyl-5-[2-(5-trifluoromethyl-1H-imidazol-2-yl)-pyridin-4-yloxy]-1H-benzoimidazol-2-yl}-(4-trifluoromethyl-phenyl)-amine], for which the “tumor growth inhibition, significance vs. vehicle” value in experiment [1] was “did not cause significant tumor growth inhibition”. Also, the “Tumor Volume” value in experiment [1] (MEXF 1341, CHIR-265 100 mg/kg oral, 100 mg/kg) was 575±214 mm^3; in experiment [1] (MEXF 1341, CHIR-265 (10 mg/ml) per table head, 10 mg/kg in text, oral, 10 mg/kg) it was 1190±291 mm^3; in experiment [2] (CHIR-265 100 mg/kg oral, 100 mg/kg) it was 19±2.9 mm^3; in experiment [2] (CHIR-265 (10 mg/ml) per table head, 10 mg/kg in text, oral, 10 mg/kg) it was 58±15.2 mm^3; in experiment [4] (CHIR-265 100 mg/kg oral every other day, day 10, mean ± SE, 100 mg/kg), 133±14.1 mm^3. The “reduction in plasma MIA” value in experiment [1] (MEXF 1341, both CHIR-265 treatments (100 and 10 mg/kg), Day 20, P<0.02) worked out at 2 fold. In addition, the tumor growth inhibition in experiment [2] (CHIR-265 at both doses (100 and 10 mg/kg)) was more than 97%. In addition, the “MIA plasma concentration (median)” value in experiment [3] (CHIR-265 100 mg/kg oral, day 3, baseline 27.8) stood at 10.4 ng/mL. Moreover, the “reduction in MIA concentration vs. baseline” value in experiment [3] (CHIR-265 100 mg/kg, day 3) was found to be 62%. This compound came in with a tumor regression in experiment [3] (CHIR-265 100 mg/kg, day 3) of 29%. In experiment [3] (CHIR-265 100 mg/kg, day 13), the MIA plasma concentration entry is “undetectable”. Also, the “tumor regression as compared to initial tumor volume (250 mm^3)” value in experiment [4] (CHIR-265 100 mg/kg oral every other day, after four doses) is recorded as approximately 50%. Moreover, the “tumor growth inhibition compared to vehicle treatment” value in experiment [4] (CHIR-265 100 mg/kg oral every other day, day 10) is on record as 70%. Moreover, in experiment [4] (CHIR-265 100 mg/kg, day 10, n=5/group), the “vehicle median MIA concentration fold higher than CHIR-265 treated mice” value was 17 fold. The MIA plasma levels in experiment [4] (after four doses of CHIR-265 100 mg/kg, plasma 48 h post fourth dose (day 10)) is approximately 4 ng/mL.
Regarding `CN1CCN(c2ccc3[nH]c(-c4c(N)c5c(F)cccc5[nH]c4=O)nc3c2)CC1` [CHIR-258, 4-amino-5-fluoro-3-[5-(4-methylpiperazin-1-yl)-1H-benzimidazol-2-yl]quinolin-2(1H)-one], the “effect on tumor volume vs. vehicle” value in experiment [5] (CHIR-258 30 mg/kg or 80 mg/kg oral once daily, by day 8, P<0.03) is “significant tumor growth inhibition”. In experiment [5] (both CHIR-258 groups (30 and 80 mg/kg), day 8 and subsequent time points), the “plasma MIA levels” value is on record as “not detectable”. Besides, the “change in MIA plasma concentration vs. vehicle” value in experiment [3] (CHIR-258 60 mg/kg oral, day 3, 60 mg/kg) is “statistically significant lower levels; also recorded: statistically significant decrease in MIA plasma concentration”. Besides, the “reduction in MIA levels compared to baseline” value in experiment [3] (CHIR-258 60 mg/kg oral, day 13) came out at 63%. Further, the “effect on tumor volume / tumor burden vs. vehicle” value in experiment [3] (CHIR-258 60 mg/kg oral, from day 8, 60 mg/kg) is reported as “tumor growth inhibition, however regressions were not observed; also recorded: tumor growth inhibition; also recorded: statistically significant reduction in tumor burden”.
`CNC(=O)c1cc(Oc2ccc(NC(=O)Nc3ccc(Cl)c(C(F)(F)F)c3)cc2)ccn1` [Sorafenib, reference compound]: the “tumor growth inhibition, significance vs. vehicle” value in experiment [1] was “did not cause significant tumor growth inhibition”. The “Tumor Volume” value in experiment [1] (MEXF 1341, sorafenib 100 mg/kg oral every day) worked out at 1338±264 mm^3; in experiment [2] (sorafenib 100 mg/kg oral every day), 887±196 mm^3. Besides, the “effect on plasma MIA levels” value in experiment [1] (MEXF 1341, sorafenib 100 mg/kg, Day 20, P>0.17) is given as “reduced plasma MIA levels”. Besides, in experiment [2] (sorafenib 100 mg/kg every day), the tumor growth inhibition came to 69%. The “median plasma MIA concentration” value in experiment [2] (sorafenib 100 mg/kg, plasma 4 hr after last dose on Day 20) is 28.9 ng/mL.
